Structures are written as SMILES.

Holding throughout (format): in vivo
For one experiment, the system named is Ipomea hederacea (IPOHE). Briefly: Comparative post-emergence test, weed control. The conditions noted are these: Ipomoea hederacea, 336 h, after 14 days, read-out: IPOHE damage (100=total damage to plant; 0=no damage). As for the experimental part:
(§1) Seeds of test species were sown in standard soil in pots. After cultivation for 10 days (post-emergence) under controlled conditions in a glasshouse (at 24/16° C., day/night; 14 hours light; 65% humidity), the plants were sprayed with an aqueous spray solution derived from the formulation of the technical active ingredient in 0.6 ml acetone and 45 ml formulation solution containing 10.6% Emulsogen EL (Registry number 61791-12-6), 42.2% N-methyl pyrrolidone, 42.2% dipropylene glycol monomethyl ether (CAS RN 34590-94-8) and 0.2% X-77 (CAS RN 11097-66-8). The test plants were then grown in a glasshouse under controlled conditions in a glasshouse (at 24/16° C., day/night; 14 hours light; 65% humidity) and watered twice daily. After 14 days, the test was evaluated (100=total damage to plant; 0=no damage to plant). • Weeds: Ipomea hederacea (IPOHE) • Crops: Zea mays (ZEAMX)

For another experiment, the system named is Zea mays (ZEAMX). The experiment in a line: Comparative post-emergence test, crop damage. The conditions noted are these: 336 h, after 14 days, read-out: ZEAMX damage (100=total damage to plant; 0=no damage). The procedure:
as §1

Experiment [1] deals with Setaria faberi (SETFA). The experiment in a line: Pre-emergence herbicidal glasshouse test. The note with it: rate 250, evaluated after 13 days, the values are: phytotoxicity score (1-5). The procedure: (§2) Seeds of a variety of test species are sown in standard soil in pots, Amaranthus retoflexus (AMARE), Abutilon theophrasti (ABUTH), Setaria faberi (SETFA), Echinochloa crus-galli (ECHCG) and Ipomoea hederacea (IPOHE). After cultivation for one day (pre-emergence) or after 8 days cultivation (post-emergence) under controlled conditions in a glasshouse (at 24/16° C., day/night; 14 hours light; 65% humidity), the plants are sprayed with an aqueous spray solution derived from the formulation of the technical active ingredient in acetone/water (50:50) solution containing 0.5% Tween 20 (polyoxyethelyene sorbitan monolaurate, CAS RN 9005-64-5). Compounds are applied at 1000 g/ha unless otherwise stated. The test plants are then grown in a glasshouse under controlled conditions in a glasshouse (at 24/16° C., day/night; 14 hours light; 65% humidity) and watered twice daily. After 13 days for pre and post-emergence, the test is evaluated for the percentage damage caused to the plant.

Experiment [2] relates to Abutilon theophrasti (ABUTH). The experiment in a line: Pre-emergence herbicidal glasshouse test. The conditions noted are these: rate 250, evaluated after 13 days, the values are:
The procedure:
as §2

Experiment [3] relates to Ipomoea hederacea (IPOHE). Briefly: Pre-emergence herbicidal glasshouse test. The conditions noted are these: rate 250, evaluated after 13 days, the values are:
As for the experimental part: as §2

Experiment [4] has as its system Amaranthus retoflexus (AMARE). Briefly: Pre-emergence herbicidal glasshouse test. The conditions noted are these: rate 250, evaluated after 13 days, the values are:
As for the experimental part:
as §2

The subject of experiment [5] is Setaria faberi (SETFA). The experiment in a line: Post-emergence herbicidal glasshouse test. The note with it: rate 250, evaluated after 13 days, the values are:
As for the experimental part: as §2

Experiment [6] relates to Abutilon theophrasti (ABUTH). The experiment in a line: Post-emergence herbicidal glasshouse test. The note with it: rate 250, evaluated after 13 days, the values are:
As for the experimental part: as §2

The test system of experiment [7] is Ipomoea hederacea (IPOHE). The experiment in a line: Post-emergence herbicidal glasshouse test. The note with it: rate 250, evaluated after 13 days, the values are: phytotoxicity score (1-5 scale). The procedure: as §2
Experiment [8] has as its system Amaranthus retoflexus (AMARE). Briefly: Post-emergence herbicidal glasshouse test. The note with it: rate 250, evaluated after 13 days, the values are: phytotoxicity score (1-5 scale). The procedure: as §2
Experiment [9] relates to Echinochloa crus-galli (ECHCG). The experiment in a line: Pre-emergence herbicidal glasshouse test. The conditions noted are these: rate 250, evaluated after 13 days, the values are: phytotoxicity score (1-5). As for the experimental part: as §2
Experiment [10] concerns Echinochloa crus-galli (ECHCG). The experiment in a line: Post-emergence herbicidal glasshouse test. The note with it: rate 250, evaluated after 13 days, the values are: phytotoxicity score (1-5 scale). As for the experimental part: as §2

With `COc1cnc(Oc2cccc(F)c2-c2cc(C(F)F)no2)nc1`, in the experiment with Ipomea hederacea (IPOHE), the pest or weed control at 2 g/ha was 10%, the pest or weed control at 8 g/ha worked out at 10%, the pest or weed control at 60 g/ha is 20% and the pest or weed control at 125 g/ha is 50%. Besides, in the experiment on Ipomea hederacea (IPOHE), the pest or weed control at 250 g/ha stood at 60% and the pest or weed control at 500 g/ha is 70%. In the experiment on Zea mays (ZEAMX), the plant injury at 2 g/ha was found to be 0%, the plant injury at 8 g/ha worked out at 0%, the plant injury at 60 g/ha is 10% and the plant injury at 125 g/ha was found to be 10%. For the same molecule, in the experiment on Zea mays (ZEAMX), the plant injury at 250 g/ha turned out to be 10% and the plant injury at 500 g/ha came to 40%.

For the molecule `COc1cnc(Oc2cccc(Cl)c2-c2cc(C(F)F)no2)nc1`, in the experiment with Ipomea hederacea (IPOHE), the pest or weed control at 2 g/ha turned out to be 20%, the pest or weed control at 8 g/ha was found to be 30%, the pest or weed control at 60 g/ha was determined as 20% and the pest or weed control at 125 g/ha came to 50%. For the same molecule, the pest or weed control at 250 g/ha in the experiment with Ipomea hederacea (IPOHE) worked out at 60%. In the experiment on Zea mays (ZEAMX), the plant injury at 2 g/ha amounted to 0%, the plant injury at 8 g/ha came out at 0%, the plant injury at 60 g/ha stood at 10% and the plant injury at 125 g/ha came out at 20%. In the experiment on Zea mays (ZEAMX), the plant injury at 250 g/ha worked out at 30%.

`COc1cnc(Oc2cccc(Br)c2-c2cc(C(F)F)no2)nc1`: in the experiment on Ipomea hederacea (IPOHE), the pest or weed control at 2 g/ha worked out at 10%, the pest or weed control at 8 g/ha came out at 30%, the pest or weed control at 60 g/ha was 50% and the pest or weed control at 125 g/ha is 50%. In the experiment with Ipomea hederacea (IPOHE), the pest or weed control at 250 g/ha was found to be 60%. Besides, in the experiment on Zea mays (ZEAMX), the plant injury at 2 g/ha turned out to be 0%, the plant injury at 8 g/ha is 0%, the plant injury at 60 g/ha was 0% and the plant injury at 125 g/ha is 10%. Also, the plant injury at 250 g/ha with Zea mays (ZEAMX) came out at 30%.

With `COc1cnc(Oc2cccc(C#N)c2-c2cc(C(F)F)no2)nc1`, in the experiment with Ipomea hederacea (IPOHE), the pest or weed control at 2 g/ha is 10%, the pest or weed control at 8 g/ha was 30%, the pest or weed control at 60 g/ha is 40% and the pest or weed control at 125 g/ha is 50%. For the same molecule, in the experiment on Ipomea hederacea (IPOHE), the pest or weed control at 250 g/ha amounted to 50% and the pest or weed control at 500 g/ha was found to be 60%. In the experiment with Zea mays (ZEAMX), the plant injury at 2 g/ha came to 0%, the plant injury at 8 g/ha is 0%, the plant injury at 60 g/ha was 0% and the plant injury at 125 g/ha amounted to 10%. In addition, in the experiment with Zea mays (ZEAMX), the plant injury at 250 g/ha turned out to be 10% and the plant injury at 500 g/ha worked out at 40%.

On to `Fc1cccc(Oc2ncc(OC(F)F)cn2)c1-c1cc(C(F)F)no1` [Compound 1.001, 5-[2-[5-(difluoromethoxy)pyrimidin-2-yl]oxy-6-fluoro-phenyl]-3-(difluoromethyl)isoxazole], for which, in the experiment with Setaria faberi (SETFA) [1], the Pre-emergence activity SETFA (% phytotoxicity) amounted to 5. In addition, the Pre-emergence activity ABUTH (% phytotoxicity) in [2] turned out to be 5. In addition, in [3], the Pre-emergence activity IPOHE (% phytotoxicity) was found to be 5. This molecule had a Pre-emergence activity AMARE (% phytotoxicity) in experiment [4] of 5. In the experiment with Setaria faberi (SETFA) [5], this molecule returned a Post-emergence activity SETFA (% phytotoxicity) of 4. Besides, in [6], the Post-emergence activity ABUTH (% phytotoxicity) was found to be 3. Further, in [7], the Post-emergence activity IPOHE (% phytotoxicity) is 3. In addition, the Post-emergence activity AMARE (% phytotoxicity) in [8] was determined as 4. Further, in the experiment on Ipomea hederacea (IPOHE), the pest or weed control at 2 g/ha stood at 30%, the pest or weed control at 8 g/ha amounted to 20%, the pest or weed control at 60 g/ha was found to be 70% and the pest or weed control at 125 g/ha was 80%. In addition, in the experiment with Ipomea hederacea (IPOHE), the pest or weed control at 250 g/ha came to 90% and the pest or weed control at 500 g/ha is 100%. In addition, in the experiment on Zea mays (ZEAMX), the plant injury at 8 g/ha amounted to 0%, the plant injury at 60 g/ha is 20%, the plant injury at 125 g/ha is 10% and the plant injury at 250 g/ha amounted to 20%. Also, in the experiment with Zea mays (ZEAMX), the plant injury at 500 g/ha is 40%.

The molecule `Fc1cccc(Oc2ncc(OC(F)(F)F)cn2)c1-c1cc(C(F)F)no1` [Compound 1.002, 3-(difluoromethyl)-5-[2-fluoro-6-[5-(trifluoromethoxy)pyrimidin-2-yl]oxy-phenyl]isoxazole] registered a Pre-emergence activity SETFA (% phytotoxicity) in the experiment on Setaria faberi (SETFA) [1] of 5. The Pre-emergence activity ECHCG (% phytotoxicity) in experiment [9] turned out to be 4. The molecule also came in with a Pre-emergence activity ABUTH (% phytotoxicity) in [2] of 5. In [3], the Pre-emergence activity IPOHE (% phytotoxicity) amounted to 4. The same molecule had a Pre-emergence activity AMARE (% phytotoxicity) in [4] of 5. This molecule yielded a Post-emergence activity SETFA (% phytotoxicity) in the experiment on Setaria faberi (SETFA) [5] of 4. In experiment [10], this molecule displayed a Post-emergence activity ECHCG (% phytotoxicity) of 4. This molecule returned a Post-emergence activity ABUTH (% phytotoxicity) in experiment [6] of 4. Besides, the Post-emergence activity IPOHE (% phytotoxicity) in experiment [7] came out at 3. In addition, in [8], the Post-emergence activity AMARE (% phytotoxicity) came out at 4.

`FC(F)Oc1cnc(Oc2cccc(Cl)c2CCCC(F)(F)F)nc1` [Compound 1.023, 2-[3-chloro-2-(4,4,4-trifluorobutyl)phenoxy]-5-(difluoromethoxy)pyrimidine] gave a Pre-emergence activity SETFA (% phytotoxicity) in the experiment on Setaria faberi (SETFA) [1] of 1. Moreover, the Pre-emergence activity ECHCG (% phytotoxicity) in experiment [9] amounted to 1. The molecule also registered a Pre-emergence activity ABUTH (% phytotoxicity) in experiment [2] of 1. In [3], this molecule returned a Pre-emergence activity IPOHE (% phytotoxicity) of 1. Further, the Pre-emergence activity AMARE (% phytotoxicity) in experiment [4] was found to be 1. Further, the Post-emergence activity SETFA (% phytotoxicity) in the experiment with Setaria faberi (SETFA) [5] came to 1. The same molecule had a Post-emergence activity ECHCG (% phytotoxicity) in experiment [10] of 1. The molecule further showed a Post-emergence activity ABUTH (% phytotoxicity) in [6] of 1. The molecule also gave a Post-emergence activity IPOHE (% phytotoxicity) in experiment [7] of 1. The molecule also returned a Post-emergence activity AMARE (% phytotoxicity) in experiment [8] of 1.

Molecule `FC(F)Oc1cnc(Oc2cccc(Br)c2CCCC(F)(F)F)nc1` [Compound 1.024] displayed a Pre-emergence activity SETFA (% phytotoxicity) in the experiment with Setaria faberi (SETFA) [1] of 1. This molecule displayed a Pre-emergence activity ECHCG (% phytotoxicity) in experiment [9] of 1. Further, the Pre-emergence activity ABUTH (% phytotoxicity) in experiment [2] is 1. The Pre-emergence activity IPOHE (% phytotoxicity) in experiment [3] amounted to 1. This molecule returned a Pre-emergence activity AMARE (% phytotoxicity) in experiment [4] of 2. In addition, in the experiment with Setaria faberi (SETFA) [5], the Post-emergence activity SETFA (% phytotoxicity) was 1. The Post-emergence activity ECHCG (% phytotoxicity) in experiment [10] stood at 1. In addition, in experiment [6], the Post-emergence activity ABUTH (% phytotoxicity) worked out at 1. Besides, in experiment [7], the Post-emergence activity IPOHE (% phytotoxicity) came out at 1. The molecule also displayed a Post-emergence activity AMARE (% phytotoxicity) in experiment [8] of 2.

For the molecule `COc1cnc(Oc2ccccc2-c2cc(C(F)F)no2)nc1` [Compound 213], in the experiment with Ipomea hederacea (IPOHE), the pest or weed control at 2 g/ha was 0%, the pest or weed control at 8 g/ha stood at 10%, the pest or weed control at 60 g/ha turned out to be 20% and the pest or weed control at 125 g/ha was determined as 30%. In the experiment with Ipomea hederacea (IPOHE), the pest or weed control at 250 g/ha is 40% and the pest or weed control at 500 g/ha was determined as 50%. In addition, in the experiment on Zea mays (ZEAMX), the plant injury at 2 g/ha came to 0%, the plant injury at 8 g/ha is 0%, the plant injury at 60 g/ha is 0% and the plant injury at 125 g/ha amounted to 0%. For the same molecule, in the experiment on Zea mays (ZEAMX), the plant injury at 250 g/ha worked out at 0% and the plant injury at 500 g/ha was 20%.
